Structures are written as SMILES. “Also recorded” adds a separate entry of the source.

The test system of one assay is lupus erythematosus. As to the kind of experiment: Screening medicines for treatment of lupus erythematosus. The settings on record: screening of extracts and potency constituents; no method given.
Assay [1] concerns lupus erythematosus model mice (kidney, liver). As to the kind of experiment: Triple staining (silver staining) of kidney and liver sections under light microscope, lupus model mice. The assay is classed as in vivo, BALB/c mice. The settings on record: positive controls (artesunate, prednisone); for basilar membrane of renal glomerulus and tubule, pathological section: 21 days; for glomerular basement membrane thickness compared with the normal mice (FIG. 9, FIG. 10): 28 days, ×50. As to the method:
(§1) The back of mice was shaved and acutely exposed to Ultraviolet of 2 h/d*3 d, with a distance of 30 cm. After exposure to UV, 2.5 mg/kg of LPS was administrated once by ip, and after 24 h, the model was successfully established; the mice in the normal control group received normal saline via ip. 24 h after injection of LPS (ip), medicines were given to the model mice by intragastric administration. Chlorogenic acid test groups received high, middle, and low doses of medicines, by intragastric administration at a respective dosage of 10 mg/kg*d, 20 mg/kg*d, and 40 mg/kg*d. The positive control group A received 2 mg/kg*d of artesunate by stomach perfusion, while the positive control group B received 1 mg/kg*d of prednisone by stomach perfusion. Mice in the model and normal control group all received 0.4 ml/mouse normal saline by gavage. After 15 days of administration, animals in each group were taken blood by separating eyeballs on days 14, 21, 28, and after cultured in water bath at 37° C. for 1 h, the blood sample was centrifugated at 2000 r/min for 5 min, to draw serum for use. On day 21, after blood collection, animals were sacrificed by dislocation, followed by collection of liver and kidney, and they were placed in fixative solutions of electron microscope and light microscrope, respectively.
[…] The thickness of slice is 3 μm, and at beginning of staining, wax was routinely deprived to water. After oxidation with 0.5% periodic acid, the slice was macerated in hexamine silver fluid for about 2 h (constant temperature 58° C.), washed with distilled water, dyed with hematoxylin for 1 min. After washing with water, the slice was dyed by dropping the ponceau staining solution for 5 min, differentiated with 70% ethanol, dehydrated with gradient ethanol, cleared with xylene, and sealed with neutral gum.

The subject of assay [2] is ANA. In words: Serologic detection of ANA by immunofluorescence on HEp-2 cell sheets, serum of UV + LPS lupus model mice. The assay is classed as in vivo, BALB/c mice. More on the design: key: (+): positive; (−): negative; (++++): intense fluorescence; (+++): stronger fluorescence; (++): weeker fluorescence. The conditions noted are these: positive controls (artesunate 2 mg/kg*d, prednisone 1 mg/kg*d) by stomach perfusion. As to the method: (§2) The back of mice was shaved and acutely exposed to Ultraviolet of 2 h/d*3 d, with a distance of 30 cm. After exposure to UV, 2.5 mg/kg of LPS was administrated once by ip, and after 24 h, the model was successfully established; the mice in the normal control group received normal saline via ip. 24 h after injection of LPS (ip), medicines were given to the model mice by intragastric administration. Chlorogenic acid test groups received high, middle, and low doses of medicines, by intragastric administration at a respective dosage of 10 mg/kg*d, 20 mg/kg*d, and 40 mg/kg*d. The positive control group A received 2 mg/kg*d of artesunate by stomach perfusion, while the positive control group B received 1 mg/kg*d of prednisone by stomach perfusion. Mice in the model and normal control group all received 0.4 ml/mouse normal saline by gavage. After 15 days of administration, animals in each group were taken blood by separating eyeballs on days 14, 21, 28, and after cultured in water bath at 37° C. for 1 h, the blood sample was centrifugated at 2000 r/min for 5 min, to draw serum for use. On day 21, after blood collection, animals were sacrificed by dislocation, followed by collection of liver and kidney, and they were placed in fixative solutions of electron microscope and light microscrope, respectively. Serum of mice was diluted at 1:100 with special buffer solution of Shenzhen Hengjia, and then 200 μL of diluted serum was respectively added to the reactive tank with corresponding number, cultured in the incubator at 37° C. for 30 min, and washed with the buffer solution four times, 2 min for each time; 200 μL of diluted biotin goat anti-mouse IgG (1:100) was added, cultured in the incubator at 37° C. for 30 min, and then washed with the buffer solution four times, 2 min for each time; 100 μL of diluted HRP-avidin (1:100) was added, cultured in the incubator at 37° C. for 30 min, and then washed as mentioned-above; reactive solutions A and B were added till appearance of positive bands, then washed with the buffer solution. Compared with the standard bands of ENA polypeptide antibody spectrum in the same kit, if the positive bands appeared at 28/29,13.5 ku polypeptide; 15,16.5,38 kupolypeptide; 52 kupolypeptide and 47/48,45 kupolypeptide, that can be determined as anti-Sm, anti-Rib, anti-ssA, and anti-ssB positive antibody. Serum was diluted with PBS at 1:40, then 20-30 μL of diluted serum was dropped into the scrobiculus of HEp-2 cell sheets, each cell sheet for each group. In the process of dropping serum, it should be noted that the surface of cell sheet can not be touched. After addition of serum, cell sheet was placed in wet box and kept for 30 min at room temperature (25° C.). After 30 min, the cell sheet was taken out, and serum was carefully washed out with PBS, then carefully washed twice with PBS, 5 min for each time; after washing, the remained PBS was removed by special absorbent paper of […] company (In this process, it should be noted that becoming dry of cell substrates will affect the results). 20-30 μL of diluted (PBS, 1:100) FITC goat anti-mouse IgG was added by dropping, and then incubated in wet box at room temperature for 30 min. After washing with PBS, steps were same to above. The remained PBS was removed by absorbent paper, and 1-2 drops of fluorescent mounting media were added to the cell sheet. The cover glass was mounted, observed under Olympus BH-2 universal microscope, and then photographed.

The test system of assay [3] is lupus erythematosus model mice (renal glomerular capsule wall epithelial cells). In words: Electron microscope observation of kidney samples, lupus model mice. The assay is classed as in vivo, BALB/c mice. The settings on record: positive controls (artesunate, prednisone), 21 days; compared with the model group. As to the method:
as §1, with “respectively. On day 21, the sample used for observation under electron microscope was fixed in mixed stationary solution of 2% paraformaldehyde+0.25% glutaral for 4 h, rinsed with TBS, treated with 1% osmic acid, followed by fixation for 1 h, rinsed with buffer solution, dehydrated with acetone, dyed with uranyl acetate for 2 h, macerated in Epon812 and embedded, and cut into slices with LEICA ultramicrotome. The slices were stained with lead solution, and the sample was observed under transmission electron microscope when it was dry.” for “respectively.”

The subject of assay [4] is ENA polypeptide antibodies (anti-Sm, anti-Rib, anti-ssA, anti-ssB). As to the kind of experiment: Serologic detection of ENA polypeptide antibodies by immunoblotting in serum of UV + LPS lupus model mice. The assay is classed as in vivo, BALB/c mice. More on the design: key to Anti-Rib: (+): positive; (−): negative; key to Anti-Sm / Anti-ssA / Anti-ssB: (+): positive; (−): negative; (++++): intenseintensity; (+++): stronger fluorescent intensity. The settings on record: for Anti-Rib / Anti-Sm / Anti-ssA / Anti-ssB: positive controls (artesunate 2 mg/kg*d, prednisone 1 mg/kg*d) by stomach perfusion; for ENA polypeptide antibodies found positive (FIG. 1): treated 14 days, positive controls (artesunate, prednisone). As to the method:
as §2
(Immunoblotting shows a protein as a band on a membrane.)

Assay [5] deals with ANA. As to the kind of experiment: Serologic detection of ANA by immunofluorescence on HEp-2 cell sheets, serum of UV + LPS lupus model mice. More on the design: key: (+): positive; (−): negative; (++++): intenseintensity; (+++): stronger fluorescent intensity. The settings on record: day 14; positive controls (artesunate 2 mg/kg*d, prednisone 1 mg/kg*d) by stomach perfusion. The assay is classed as in vivo, BALB/c mice. As to the method: as §2

Assay [6] has as its system ANA. The assay is described as above. The assay is classed as in vivo, BALB/c mice. The settings on record: artesunate, 28 days, ×200. As to the method:
The back of mice was shaved and acutely exposed to Ultraviolet of 2 h/d*3 d, with a distance of 30 cm. After exposure to UV, 2.5 mg/kg of LPS was administrated once by ip, and after 24 h, the model was successfully established; the mice in the normal control group received normal saline via ip. 24 h after injection of LPS (ip), medicines were given to the model mice by intragastric administration. Chlorogenic acid test groups received high, middle, and low doses of medicines, by intragastric administration at a respective dosage of 10 mg/kg*d, 20 mg/kg*d, and 40 mg/kg*d. The positive control group A received 2 mg/kg*d of artesunate by stomach perfusion, while the positive control group B received 1 mg/kg*d of prednisone by stomach perfusion. Mice in the model and normal control group all received 0.4 ml/mouse normal saline by gavage. After 15 days of administration, animals in each group were taken blood by separating eyeballs on days 14, 21, 28, and after cultured in water bath at 37° C. for 1 h, the blood sample was centrifugated at 2000 r/min for 5 min, to draw serum for use. On day 21, after blood collection, animals were sacrificed by dislocation, followed by collection of liver and kidney, and they were placed in fixative solutions of electron microscope and light microscrope, respectively. Serum of mice was diluted at 1:100 with special buffer solution of Shenzhen Hengjia, and then 200 μL of diluted serum was respectively added to the reactive tank with corresponding number, cultured in the incubator at 37° C. for 30 min, and washed with the buffer solution four times, 2 min for each time; 200 μL of diluted biotin goat anti-mouse IgG (1:100) was added, cultured in the incubator at 37° C. for 30 min, and then washed with the buffer solution four times, 2 min for each time; 100 μL of diluted HRP-avidin (1:100) was added, cultured in the incubator at 37° C. for 30 min, and then washed as mentioned-above; reactive solutions A and B were added till appearance of positive bands, then washed with the buffer solution. Compared with the standard bands of ENA polypeptide antibody spectrum in the same kit, if the positive bands appeared at 28/29,13.5 ku polypeptide; 15,16.5,38 kupolypeptide; 52 kupolypeptide and 47/48,45 kupolypeptide, that can be determined as anti-Sm, anti-Rib, anti-ssA, and anti-ssB positive antibody. Serum was diluted with PBS at 1:40, then 20-30 μL of diluted serum was dropped into the scrobiculus of HEp-2 cell sheets, each cell sheet for each group. In the process of dropping serum, it should be noted that the surface of cell sheet can not be touched. After addition of serum, cell sheet was placed in wet box and kept for 30 min at room temperature (25° C.). […]

Regarding `O=C(O)C1=CO[C@@H](O[C@@H]2O[C@H](CO)[C@@H](O)[C@H](O)[C@H]2O)[C@@H]2C(CO)=CC[C@H]12` [geniposidic acid], the “inhibition on lupus erythematosus” value in the assay on lupus erythematosus was “relatively obvious inhibition”.

For the compound `C[C@]12C=CC(=O)C=C1CC[C@@H]1[C@@H]2C(=O)C[C@@]2(C)[C@H]1CC[C@]2(O)C(=O)CO` [Prednisone, prednisone, reference compound], in assay [1], the “basilar membrane of renal glomerulus and tubule, pathological section” value was “increased thickness compared with the normal mice”. The “glomerular basement membrane thickness compared with the normal mice (FIG. 9, FIG. 10)” value in assay [1] was “obviously increased thickness”. The ANA result is “(+++)” in the assay with ANA [2] (day 21), “(+++)” in the assay with ANA [2] (day 28) and “(++++)” in the assay with ANA [5]. For the same compound, the “proliferative degree of renal glomerular capsule wall epithelial cells” value in assay [3] was “slightly relieves; also recorded: somewhat relieved”. For the same compound, the Anti-Rib result in assay [4] (day 14), in assay [4] (day 21) and in assay [4] (day 28) was “(+)” throughout. The Anti-Sm entry in assay [4] (day 14), in assay [4] (day 21) and in assay [4] (day 28) was “(+)” in each case. For the same compound, the Anti-ssA entry in assay [4] (day 14), in assay [4] (day 21) and in assay [4] (day 28) was “(+)” in each case. Further, the Anti-ssB entry in assay [4] (day 14), in assay [4] (day 21) and in assay [4] (day 28) was “(+)” throughout. In addition, in assay [4], the “ENA polypeptide antibodies found positive (FIG. 1)” value is “anti-Sm, anti-ssA and anti-ssB bodies are positive”.

On to `C[C@H]1[C@H](OC(=O)CCC(=O)O)O[C@@H]2O[C@@]3(C)CC[C@H]4[C@H](C)CC[C@@H]1[C@@]24OO3` [Artesunate, artesunate, reference compound], for which the “basilar membrane of renal glomerulus and tubule, pathological section” value in assay [1] is “increased thickness compared with the normal mice”. Further, the “glomerular basement membrane thickness compared with the normal mice (FIG. 9, FIG. 10)” value in assay [1] is “increased thickness”. Besides, the ANA entry in the assay with ANA [2] (day 21) was “(+++)”; in the assay with ANA [2] (day 28), “(+++)”; with ANA [5] it was “(++++)”. For the same compound, the “fluorescence intensity of ANA (FIG. 5)” value with ANA [6] is recorded as “doesn't decrease”. For the same compound, the “proliferative degree of renal glomerular capsule wall epithelial cells” value in assay [3] is “slightly relieves; also recorded: somewhat relieved”. Moreover, the Anti-Rib result is given as “(+)” in assay [4] (day 14), “(+)” in assay [4] (day 21) and “(−)” in assay [4] (day 28). In addition, the Anti-Sm result in assay [4] (day 14), in assay [4] (day 21) and in assay [4] (day 28) was “(+)” throughout. The Anti-ssA entry in assay [4] (day 14), in assay [4] (day 21) and in assay [4] (day 28) was “(+)” each time. In addition, the Anti-ssB entry in assay [4] (day 14), in assay [4] (day 21) and in assay [4] (day 28) was “(+)” throughout. Further, in assay [4], the “ENA polypeptide antibodies found positive (FIG. 1)” value is “anti-Sm, anti-ssA and anti-ssB bodies are positive”.

For the compound `OCC1=C[C@@H](O)[C@@H]2C=CO[C@@H](O[C@@H]3O[C@H](CO)[C@@H](O)[C@H](O)[C@H]3O)[C@H]12` [aucubin], the “inhibition on lupus erythematosus” value with lupus erythematosus is given as “relatively obvious inhibition”.
